This is an account of results in patent US6696487B2, “Fungicidal phenyl(thio)urea and phenyl(thio)carbamate derivatives” (Bayer Cropscience S.A., priority 2000, dated 2004).

For orientation: melting point means the temperature of the solid-liquid transition. In turn, `CCN(C)C(=S)Nc1cc(C)c(Oc2cccc(C(C)(C)C)c2)cc1C` [Compound 27, N′-(4-{[3-(1,1-dimethylethyl)phenyl]oxy}-2,5-dimethylphenyl)-N-ethyl-N-methylthiourea] displayed a melting point of 125 °C.
